Data as given in patent US10226448B2, “3-(1H-pyrrolo[3,2-C]pyridin-2-yl)-1H-pyrazolo[3,4-B]pyridines and therapeutic uses thereof” (Samumed, LLC, priority 2015, dated 2019).

How the values were obtained:
Type in all cases: cell-based
[1] = tested on: LL29 cells (primary human fibroblasts derived from IPF patients), α-smooth muscle actin; experiment: Inhibition of the fibrotic process: αSMA staining in TGF-β1 treated primary human fibroblasts from IPF patients (LL29 cells); conditions: Fibroblast; for EC50: 96 h, LL29 cells, TGF-β1 20 ng/mL, 4 days, % αSMA positive cells; for inhibition at 10 µM: read-out: percent inhibition at 10 μM
Method: Representative compounds were screened using primary human fibroblasts (derived from IPF patients) treated with TGF-β1 to determine their ability to inhibit the fibrotic process.
LL29 cells are plated at 1,500 cells/well in 80 μL/well F12 medium supplemented with 1% Fetal Bovine Serum. […] Wells treated with TGF-β1 and containing DMSO were used as controls. […] Following incubation for 4 days, SYTOX green nucleic acid stain (Life Technologies [Thermo Fisher Scientific]) was added to the wells at a final concentration of 1 μM and incubated at room temperature for 30 min.

[2] = tested on: Wnt activity (Sp5-Luc reporter, TCF/LEF binding sites) in SW480 colon carcinoma cells; experiment: Wnt activity screening assay: Sp5-Luc reporter gene assay in SW480 cells; conditions: Homo sapiens; for EC50: Sp5-Luc reporter, SW480 cells, overnight incubation
Description: The screening assay for Wnt activity is described as follows. Reporter cell lines can be generated by stably transducing cancer cell lines (e.g., colon cancer) or primary cells (e.g., IEC-6 intestinal cells) with a lentiviral construct that includes a Wnt-responsive promoter driving expression of the firefly luciferase gene.
SW480 colon carcinoma cells were transduced with a lentiviral vector expressing luciferase with a human Sp5 promoter consisting of a sequence of eight TCF/LEF binding sites. SW480 cells stably expressing the Sp5-Luc reporter gene and a hygromycin resistance gene were selected by treatment with 150 μg/mL of hygromycin for 7 days. These stably transduced SW480 cells were expanded in cell culture and used for all further screening activities. […] For Sp5-Luc reporter gene assays, the cells were plated at 4,000 cells/well in 384-well plates with medium containing 1% fetal bovine serum and incubated overnight at 37° C. and 5% CO2. Following incubation, 20 μl of BrightGlo luminescence reagent (Promega) was added to each well of the 384-well assay plates. The plates were placed on an orbital shaker for 2 min and then luminescence was quantified using the Envision (Perkin Elmer) plate reader. Readings were normalized to DMSO only treated cells, and normalized activities were utilized for EC50 calculations using the dose-response log (inhibitor) vs. response variable slope (four parameters) nonlinear regression feature available in GraphPad Prism 5.0 (or Dotmatics).

[3] = tested on: primary human mesenchymal stem cells (hMSCs); experiment: Induction of chondrogenesis in primary human mesenchymal stem cells (chondrogenic nodules, Rhodamine B / Nile Red); conditions: 6 days; for EC50: concentration required to induce 50% levels of chondrogenesis vs TGF-β3, read-out: Conc (nM) of 50% TGF-β3 activity; for Emax: relative to TGF-β3 (10 ng/mL) positive control, read-out: Max. Activity as % TGF-β3 activity
Description: Representative compounds were screened using primary human mesenchymal stem cells (hMSCs) to determine their ability to induce chondrogenesis (process by which cartilage is developed).
Human Mesenchymal Stem Cell Culture: Primary human mesenchymal stem cells (hMSCs) were purchased from Lonza (Walkersville, Md.) and expanded in Mesenchymal Stem Cell Growth Media (Lonza). Cells between passage 3 and 6 were used for the experiments.
To image chondrogenic nodules, the cells were fixed using 4% formaldehyde (Electron Microscopy Sciences), and stained with 2 μg/mL Rhodamine B (Sigma-Aldrich) and 20 μM Nile Red (Sigma-Aldrich) [Johnson K., et. al, A Stem Cell-Based Approach to Cartilage Repair, Science, (2012). […] Number of nodules in each well was normalized to the average of 3 DMSO treated wells on the same plate using Excel (Microsoft Inc.). The normalized averages (fold change over DMSO) of 3 replicate wells for each compound concentration were calculated. Due to solubility limitations of some of the compounds, curve fitting was incomplete leading to inaccurate EC50 determinations.
Using TGF-β3 as a positive control, the concentration of representative compounds required to induce 50% levels of chondrogenesis is reported. In addition, the maximum activity of each compound and the respective dose that each compound reached maximum chondrogenesis activity is reported.

IL-6 in THP-1 cells = experiment: IL-6 inhibition in LPS-stimulated THP-1 human monocyte cells (HTRF); conditions: for EC50: IL-6 inhibition, LPS-stimulated THP-1 cells, HTRF, 10-point dose-response starting from 10 μM; for inhibition at 10 µM: THP-1, read-out: percentage in parentheses beside EC50 >10
Method: Compound Screening: THP-1 cells were cultured in basal media with 1% FBS for 24 hours before the start of the assay. […] THP-1 cells were plated at 5000 cells/well in the 384-well plates and incubated at 37° C. for 2 h. 500 ng/mL of LPS was added after 2 hours and cells were incubated for another 22 hours at 37° C. Plates were spun in a centrifuge for 1 minute at […] and a mixture of anti-IL6 XL665, and anti-IL6 Cryptate diluted in reconstitution buffer (Cisbio Inc.) was added to each well. Following incubation for 3 hrs at room temperature, Homogeneous Time-Resolved Fluorescence (HTRF) was measured using the Envision (Perkin Elmer) at 665 nm and […]. The ratio of fluorescence at 665 nm to 620 nm was used as a readout for IL6 quantification. All samples were processed in duplicate. Readings were normalized to DMSO treated cells and normalized activities were utilized for EC50 calculations using the dose-response log (inhibitor) vs. response variable slope (four parameters) nonlinear regression feature available in GraphPad Prism 5.0 (or Dotmatics).

SW480 colon cancer cells = experiment: Cell viability assay (CellTiter-Blue) in SW480 colon cancer cells; conditions: Homo sapiens; for EC50: 96 h, SW480 cell viability, four days, CellTiter-Blue
Method: Representative compounds were screened using the following assay procedure to assess the effect on cell viability as described below.
Approximately 2×10^3 SW480 colon cancer cells were seeded into each well and allowed to incubate in the presence or absence of compound for four days at 37° C./5% CO2. Eight replicates of DMSO-treated cells served as controls and cells treated with compound were performed in duplicate.
After incubation, 20 μL of CellTiter-Blue (Promega) was added to each well allowed to incubate for approximately 3 hours. This reagent was a buffered solution which contains resazurin, metabolically active cells were able to reduce rezarurin (blue) into resorufin (pink) which was highly fluorescent. This measured fluorescence was used as a readout for cell viability.

[4] = SW480, read-out: percent inhibition at 10 μM

Row | EC50 [2] [nM] | EC50 [3] [nM] | EC50 (IL-6 in THP-1 cells) [nM] | EC50 (SW480 colon cancer cells) [nM] | SMILES | EC50 [1] [nM] | Emax [3] [%] | inhibition at 10 µM [1] [%] | inhibition at 10 µM (IL-6 in THP-1 cells) [%] | inhibition at 10 µM [2, 4] [%] | inhibition at 10 µM (SW480 colon cancer cells; [4]) [%]
1 | 197 | 30 | 198 | 762 | Nc1cncc(-c2cnc3[nH]nc(-c4cc5c(-c6ccccc6F)nccc5[nH]4)c3c2)c1 [Compound 59, 5-(3-(4-(2-Fluorophenyl)-1H-pyrrolo[3,2-c]pyridin-2-yl)-1H-pyrazolo[3,4-b]pyridin-5-yl)pyridin-3-amine] | 2280 | 86 |  |  |  | 
2 | 1080 |  | 1890 | 923 | CCNCc1cncc(-c2cnc3[nH]nc(-c4cc5c(-c6ccccc6F)nccc5[nH]4)c3c2)c1 [Compound 62, N-((5-(3-(4-(2-Fluorophenyl)-1H-pyrrolo[3,2-c]pyridin-2-yl)-1H-pyrazolo[3,4-b]pyridin-5-yl)pyridin-3-yl)methyl)ethanamine] | 2370 | 52 |  |  |  | 
3 | 435 | 10 | 235 | 959 | CC(C)Nc1cncc(-c2cnc3[nH]nc(-c4cc5c(-c6ccccc6F)nccc5[nH]4)c3c2)c1 [Compound 68, 5-(3-(4-(2-Fluorophenyl)-1H-pyrrolo[3,2-c]pyridin-2-yl)-1H-pyrazolo[3,4-b]pyridin-5-yl)-N-isopropylpyridin-3-amine] | 1890 | 76 |  |  |  | 
4 | 321 | 30 | 53 | 450 | O=C(Nc1cncc(-c2cnc3[nH]nc(-c4cc5c(-c6ccccc6F)nccc5[nH]4)c3c2)c1)C1CC1 [Compound 76, N-(5-(3-(4-(2-Fluorophenyl)-1H-pyrrolo[3,2-c]pyridin-2-yl)-1H-pyrazolo[3,4-b]pyridin-5-yl)pyridin-3-yl)cyclopropanecarboxamide] | 2700 | 78 |  |  |  | 
5 | 4060 |  | > 10000 | 2080 | Fc1ccccc1-c1nccc2[nH]c(-c3n[nH]c4ncc(-c5cncnc5)cc34)cc12 [Compound 83, 3-(4-(2-Fluorophenyl)-1H-pyrrolo[3,2-c]pyridin-2-yl)-5-(pyrimidin-5-yl)-1H-pyrazolo[3,4-b]pyridine] | 1210 | 36 |  | 28.3 |  | 

Continued, molecule first:

Row | SMILES | EC50 [2] [nM] | EC50 [3] [nM] | EC50 (IL-6 in THP-1 cells) [nM] | EC50 (SW480 colon cancer cells) [nM] | EC50 [1] [nM] | Emax [3] [%] | inhibition at 10 µM [1] [%] | inhibition at 10 µM (IL-6 in THP-1 cells) [%] | inhibition at 10 µM [2, 4] [%] | inhibition at 10 µM (SW480 colon cancer cells; [4]) [%]
6 | O=C(Nc1cncc(-c2cnc3[nH]nc(-c4cc5c(-c6ccc(F)cc6)nccc5[nH]4)c3c2)c1)C1CCC1 [Compound 49, N-(5-(3-(4-(4-Fluorophenyl)-1H-pyrrolo[3,2-c]pyridin-2-yl)-1H-pyrazolo[3,4-b]pyridin-5-yl)pyridin-3-yl)cyclobutanecarboxamide] | 1170 | 10 | 1480 | 595 | 360 | 208 |  |  |  | 
7 | Fc1ccc(-c2nccc3[nH]c(-c4n[nH]c5ncc(-c6cncc(CNCc7ccccc7)c6)cc45)cc23)cc1 [Compound 52, N-Benzyl-1-(5-(3-(4-(4-fluorophenyl)-1H-pyrrolo[3,2-c]pyridin-2-yl)-1H-pyrazolo[3,4-b]pyridin-5-yl)pyridin-3-yl)methanamine] | 854 | 900 | 1260 | 346 | 458 | 179 |  |  |  | 
8 | O=C(Nc1cncc(-c2cnc3[nH]nc(-c4cc5c(-c6ccccc6F)nccc5[nH]4)c3c2)c1)c1ccccc1 [Compound 67, N-(5-(3-(4-(2-Fluorophenyl)-1H-pyrrolo[3,2-c]pyridin-2-yl)-1H-pyrazolo[3,4-b]pyridin-5-yl)pyridin-3-yl)benzamide] | 1980 | 10 | > 10000 | 1620 | > 10000 | 101 | 6.3 | 41.4 |  | 
9 | CCCC(=O)Nc1cncc(-c2cnc3[nH]nc(-c4cc5c(-c6ccccc6F)nccc5[nH]4)c3c2)c1 [Compound 73, N-(5-(3-(4-(2-Fluorophenyl)-1H-pyrrolo[3,2-c]pyridin-2-yl)-1H-pyrazolo[3,4-b]pyridin-5-yl)pyridin-3-yl)butyramide] | 472 |  | 36 | 348 | 2660 | 53 |  |  |  | 
10 | O=C(Nc1cncc(-c2cnc3[nH]nc(-c4cc5c(-c6ccccc6F)nccc5[nH]4)c3c2)c1)C1CCCC1 [Compound 78, N-(5-(3-(4-(2-Fluorophenyl)-1H-pyrrolo[3,2-c]pyridin-2-yl)-1H-pyrazolo[3,4-b]pyridin-5-yl)pyridin-3-yl)cyclopentanecarboxamide] | 960 |  | 505 | 651 | > 10000 | 51 | 12.7 |  |  | 
11 | Nc1cncc(-c2cnc3[nH]nc(-c4cc5c(-c6ccncc6)nccc5[nH]4)c3c2)c1 [Compound 115, 5-(3-(4-(Pyridin-4-yl)-1H-pyrrolo[3,2-c]pyridin-2-yl)-1H-pyrazolo[3,4-b]pyridin-5-yl)pyridin-3-amine] | > 10000 | 30 | > 10000 | > 10000 | > 10000 | 53 | 53.8 | 9.7 | 9.3 | 10.1
12 | c1cncc(-c2cnc3[nH]nc(-c4cc5c(N6CCCCC6)nccc5[nH]4)c3c2)c1 [Compound 172, 3-(4-(Piperidin-1-yl)-1H-pyrrolo[3,2-c]pyridin-2-yl)-5-(pyridin-3-yl)-1H-pyrazolo[3,4-b]pyridine] | 4020 | 900 | 484 | 1160 | 1330 | 169 |  |  |  | 
13 | CC(C)Nc1cncc(-c2cnc3[nH]nc(-c4cc5c(N6CCCCC6)nccc5[nH]4)c3c2)c1 [Compound 180, N-Isopropyl-5-(3-(4-(piperidin-1-yl)-1H-pyrrolo[3,2-c]pyridin-2-yl)-1H-pyrazolo[3,4-b]pyridin-5-yl)pyridin-3-amine] | 3410 |  | 2130 | 3700 | 247 | 34 |  |  |  | 
